From US20050020643A1, “Pyridinyl amides and compositions thereof for use as fungicides” (priority 2002, published 2005)

Legend:
Type in all cases: in vivo
[1] = tested on: Erysiphe graminis f. sp. tritici; experiment: Test A: preventive control of wheat powdery mildew on wheat seedlings; design: concentration or dose not given beside the values; settings: sprayed day before inoculation, rated after 7 days, rate not given
Plasmopara viticola [2] = experiment: Test E: preventive control of grape downy mildew on grape seedlings; settings: sprayed day before inoculation, rate not given
Phytophthora infestans [3] = settings: tomato (or potato) seedlings, sprayed day before inoculation; rate not given
Plasmopara viticola [4] = experiment: Test G: curative control of grape downy mildew on grape seedlings (sprayed after inoculation); settings: sprayed day after inoculation, rate not given
Puccinia recondita = experiment: Test B: preventive control of wheat leaf rust on wheat seedlings; design: concentration or dose not given beside the values; settings: sprayed day before inoculation, rate not given
Pyricularia oryzae = settings: rice seedlings, sprayed day before inoculation; rate not given
Phytophthora infestans [5] = experiment: whole plant or invertebrate; settings: for pest or weed control at 100 g/ha: Phytophthora infestans, in Solanum tuberosum, 120 h, read-out: Test F disease control rating; for Test F disease control rating: 100 g/ha on potato seedlings, sprayed day after inoculation

Row | SMILES | Test A disease control rating [1] | Test E disease control rating (Plasmopara viticola [2]) | Test D disease control rating (Phytophthora infestans [3]) | Test G disease control rating (Plasmopara viticola [4]) | Test B disease control rating (Puccinia recondita) | Test C disease control rating (Pyricularia oryzae) | pest or weed control at 100 g/ha (Phytophthora infestans [5]) | Test F disease control rating (Phytophthora infestans [5])
1 | CC(NC(=O)c1c(Cl)ccnc1Cl)c1ncc(Cl)cc1Cl (racemic) [Compound 1, 2,4-Dichloro-N-[1-(3,5-dichloro-2-pyridinyl)ethyl]-3-pyridinecarboxamide] | 0% | 99% | 100% | 100% | 38% | 0% | 87% | –
2 | CC(NC(=O)c1c(Cl)ccnc1Cl)c1ncc(F)cc1Cl (centres unmarked) [Compound 5] | 0% | 70% | 100% | 99% | 0% | – | – | 100%
3 | CC(NC(=O)c1c(Cl)ccnc1Cl)c1ncc(Br)cc1Cl (racemic) [Compound 2, N-[1-(5-bromo-3-chloro-2-pyridinyl)ethyl]-2,4-dichloro-3-pyridinecarboxamide] | 0% | 100% | 100% | 100% | 19% | 0% | 93% | –
4 | Cc1cnc(C(C)NC(=O)c2c(Cl)ccnc2Cl)c(C)c1 (centres unmarked) [Compound 10] | 0% | 57% | 99% | 0% | 0% | – | – | 0%
5 | CC(NC(=O)c1c(Cl)ccnc1Cl)c1ncc(I)cc1Cl (centres unmarked) [Compound 3, N-[1-(3-chloro-5-iodo-2-pyridinyl)ethyl]-2,4-dichloro-3-pyridinecarboxamide] | 0% | 95% | 100% | 100% | 19% | – | 88% | –
6 | O=C(NCc1ncc(Cl)cc1Br)c1c(Cl)ccnc1Cl [Compound 6] | 0% | 70% | 100% | 99% | 0% | – | – | 100%
7 | CC(NC(=O)c1c(Cl)ccnc1Cl)c1ncc(OC(F)F)cc1Cl (centres unmarked) [Compound 11] | 0% | 100% | 100% | 100% | 0% | – | – | 93%
8 | Cc1cc(Cl)c(C(=O)NC(C)c2ncc(Br)cc2Cl)c(Cl)n1 (centres unmarked) [Compound 13] | 0% | 100% | 100% | 100% | 68% | – | – | 100%
9 | O=C(NCc1ncc(Cl)cc1I)c1c(Cl)ccnc1Cl [Compound 8] | 0% | 100% | 100% | 36% | 0% | – | – | 100%
10 | O=C(NCc1ncc(I)cc1Cl)c1c(Cl)ccnc1Cl [Compound 12, N-[(3-chloro-5-iodo-2-pyridinyl)methyl]-2,4-dichloro-3-pyridinecarboxamide] | 0% | 59% | 100% | 63% | 0% | – | 98% | –
11 | O=C(NCc1ncc(Br)cc1Cl)c1c(Cl)ccnc1Cl [Compound 9, N-[(5-bromo-3-chloro-2-pyridinyl)methyl]-2,4-dichloro-3-pyridinecarboxamide] | 0% | 88% | 100% | 99% | 9% | – | 99% | –
